Where “and” joins values, the source holds several entries; their conditions need not be identical. Equal values may be shown once. Starred links: 1 amine or outer side, 2 acyl side, 3 side chain; linkers in the order of their positions; H or OH if unused. Non-standard residues stand in square brackets, D forms with d. Residues, ends and D or L forms follow the SMILES beside them. X1 = CCCC(=S)NCCCC[C@H](N[*:1])C(=O)[*:2]; Abu = CC[C@H](N)C(=O)O
Target: T1, SIRT2 (Homo sapiens, UniProt Q8IXJ6)
T1 sequence (Q8IXJ6 1-389): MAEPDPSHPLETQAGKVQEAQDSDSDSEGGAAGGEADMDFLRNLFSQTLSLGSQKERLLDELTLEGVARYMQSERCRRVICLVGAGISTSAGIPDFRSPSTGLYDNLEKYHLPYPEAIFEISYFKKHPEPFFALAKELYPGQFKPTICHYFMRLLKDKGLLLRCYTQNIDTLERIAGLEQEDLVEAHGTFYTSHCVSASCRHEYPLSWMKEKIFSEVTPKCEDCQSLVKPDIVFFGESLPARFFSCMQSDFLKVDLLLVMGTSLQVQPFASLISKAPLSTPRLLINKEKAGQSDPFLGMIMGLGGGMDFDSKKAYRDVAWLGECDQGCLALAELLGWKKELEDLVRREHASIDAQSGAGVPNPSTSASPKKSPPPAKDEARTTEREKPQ
Experiment: Continuous fluorogenic sirtuin inhibition assay, SIRT2 (tBuK peptides, TB)
Format: biochemical
Details: for IC50: 0.25 µM SIRT2, 1 mM NAD+, 5 µM fluorogenic substrate, 15 min preincubation, n = 2, read-out: IC50; for activity at 0.0064 µM / %Activity, SIRT2 / activity at 0.032 µM / activity at 0.5 µM / activity at 1 µM / activity at 2 µM / activity at 50 µM / activity at 4 µM: single trials
Experimental: The continuous assay for comparing isoform specificity of S2P04 was performed using the universal fluorogenic sirtuin substrate described by Schuster et al.[41]. Briefly, the inhibition reactions were performed in 50-µL volumes at 37 °C in black, half-area, 96-well plates. The sirtuin enzyme (0.25 µM) was preincubated with different concentrations of the peptide S2P04 (0.0064–50 µM for SIRT1 and SIRT2, 0.5–100 µM for SIRT3) or TB (0.16–150 µM for SIRT1–SIRT3), and 1 mM NAD^+ in assay buffer (20 mM Tris, pH 7.8, 150 mM NaCl, 5 mM MgCl2, and 1 mM DTT) for 15 min. Following incubation, the reaction started with the addition of the fluorogenic substrate (5 µM), and product formation was monitored by measuring the fluorescence intensity every 20 s for 5 min (SIRT2) or 30 min (SIRT1 and SIRT3) in a BioTek Synergy H1 microplate reader at λex = 320 nm and λem = 408 nm (gain = 130 and read height = 7 mm). Initial rates of product formation were determined by a linear regression of the plot of fluorescence intensity vs. time and normalized relative to 0% (max inhibitor) and 100% (no inhibitor) controls. The assay was repeated to determine the IC50 values of all BuK peptides for SIRT2. IC50 values were determined by nonlinear regression of the plot of the normalized initial rate vs. inhibitor concentration using GraphPad Prism. The determined IC50 values are provided in Supplementary Table 2, and inhibition curves can be seen in Supplementary Fig. 20.

## CCCC(=S)NCCCC[C@H](NC(=O)[C@@H](NC(=O)[C@@H](NC(=O)[C@@H](N)CS)[C@@H](C)O)C(C)C)C(=O)N[C@H](C(N)=O)[C@@H](C)CC [S2P04-5-tBuK] (H-CTV[X1]I-NH2)
  IC50: 136 ± 29 nM
Inhibitor 0.0064 µM
  activity at 0.0064 µM: 101%
Inhibitor 0.0064 µM, 0.0064 µM
  %Activity, SIRT2: 119.97%
Inhibitor 0.032 µM
  activity at 0.032 µM: 87.2%
Inhibitor 0.032 µM, 0.032 µM
  %Activity, SIRT2: 96.038%
Inhibitor 0.5 µM
  activity at 0.5 µM: 8.86%
Inhibitor 0.5 µM, 0.5 µM
  %Activity, SIRT2: 9.5933%
Inhibitor 1 µM
  activity at 1 µM: 6.24%
Inhibitor 1 µM, 1 µM
  %Activity, SIRT2: 6.7307%
Inhibitor 2 µM
  activity at 2 µM: 5%
Inhibitor 2 µM, 2 µM
  %Activity, SIRT2: 6.0395%
Inhibitor 4 µM, 4 µM
  %Activity, SIRT2: -0.2382% and 0.3719%
Inhibitor 50 µM
  activity at 50 µM: 1.19%
Inhibitor 50 µM, 50 µM
  %Activity, SIRT2: 0.8865%

## CCCC(=S)NCCCC[C@H](NC(=O)[C@@H](NC(=O)[C@@H](NC(=O)[C@H](CS)NC(C)=O)[C@@H](C)O)C(C)C)C(=O)N[C@H](C(N)=O)[C@@H](C)CC [Ac-S2P04-5-tBu] (Ac-CTV[X1]I-NH2)
  IC50: 191 ± 9 nM
Inhibitor 0.0064 µM
  activity at 0.0064 µM: 104%
Inhibitor 0.0064 µM, 0.0064 µM
  %Activity, SIRT2: 111.5%
Inhibitor 0.032 µM
  activity at 0.032 µM: 89.7%
Inhibitor 0.032 µM, 0.032 µM
  %Activity, SIRT2: 105.63%
Inhibitor 0.5 µM
  activity at 0.5 µM: 12.5%
Inhibitor 0.5 µM, 0.5 µM
  %Activity, SIRT2: 12.664%
Inhibitor 1 µM
  activity at 1 µM: 5.39%
Inhibitor 1 µM, 1 µM
  %Activity, SIRT2: 6.0395%
Inhibitor 2 µM
  activity at 2 µM: 3.09%
Inhibitor 2 µM, 2 µM
  %Activity, SIRT2: 4.8945%
Inhibitor 4 µM
  activity at 4 µM: 3.78%
Inhibitor 4 µM, 4 µM
  %Activity, SIRT2: 3.4595%
Inhibitor 50 µM, 50 µM
  %Activity, SIRT2: -0.7428% and 1.396%

## CCCC(=S)NCCCC[C@H](NC(=O)[C@@H](NC(=O)[C@@H](NC(=O)[C@@H](N)CS)[C@@H](C)O)C(C)C)C(=O)N[C@H](C(=O)N[C@@H](CO)C(=O)N[C@@H](CC(C)C)C(N)=O)[C@@H](C)O [S2P03-tBuK] (H-CTV[X1]TSL-NH2)
  IC50: 68 ± 5 nM
Inhibitor 0.0064 µM
  activity at 0.0064 µM: 98.4%
Inhibitor 0.0064 µM, 0.0064 µM
  %Activity, SIRT2: 108.62%
Inhibitor 0.032 µM
  activity at 0.032 µM: 83.5%
Inhibitor 0.032 µM, 0.032 µM
  %Activity, SIRT2: 92.999%
Inhibitor 0.5 µM, 0.5 µM
  %Activity, SIRT2: 2.6542% and 5.9955%
Inhibitor 1 µM, 1 µM
  %Activity, SIRT2: 1.6503% and 4.1115%
Inhibitor 2 µM
  activity at 2 µM: 1.28%
Inhibitor 2 µM, 2 µM
  %Activity, SIRT2: 2.2764%
Inhibitor 4 µM, 4 µM
  %Activity, SIRT2: -0.1595% and 1.9208%
Inhibitor 50 µM, 50 µM
  %Activity, SIRT2: 2.8758% and -0.3176%

## CCCC(=S)NCCCC[C@H](NC(=O)[C@@H](NC(=O)[C@@H](NC(=O)[C@@H](N)CC)[C@@H](C)O)C(C)C)C(=O)N[C@H](C(N)=O)[C@@H](C)CC [S2P04(Abu)-5-tBuK] (H-[Abu]TV[X1]I-NH2)
  IC50: 119 ± 3 nM
Inhibitor 0.0064 µM, listed as S2P04-5-Abu-tBu, 0.0064 µM
  %Activity, SIRT2: 97.908% and 63.307%
Inhibitor 0.032 µM, listed as S2P04-5-Abu-tBu, 0.032 µM
  %Activity, SIRT2: 79.071% and 55.539%
Inhibitor 0.5 µM
  activity at 0.5 µM: 10%
Inhibitor 0.5 µM, listed as S2P04-5-Abu-tBu, 0.5 µM
  %Activity, SIRT2: 11.559%
Inhibitor 1 µM
  activity at 1 µM: 6.61%
Inhibitor 1 µM, listed as S2P04-5-Abu-tBu, 1 µM
  %Activity, SIRT2: 4.9054%
Inhibitor 2 µM
  activity at 2 µM: 4.66%
Inhibitor 2 µM, listed as S2P04-5-Abu-tBu, 2 µM
  %Activity, SIRT2: 4.1695%
Inhibitor 4 µM
  activity at 4 µM: 3.95%
Inhibitor 4 µM, listed as S2P04-5-Abu-tBu, 4 µM
  %Activity, SIRT2: 3.2715%
Inhibitor 50 µM
  activity at 50 µM: 1.5%
Inhibitor 50 µM, listed as S2P04-5-Abu-tBu, 50 µM
  %Activity, SIRT2: 1.1019%
